Experiment [1] deals with Phospho-Myosin Light Chain2 (Ser19). Nature of the experiment: Cell activity test: MLC2 (Ser19) phosphorylation in A7R5 cells (Western blot). It counts as cell-based. Particulars: starved 20 hours, compound treatment 60 minutes, MLC2 (Ser19) phosphorylation corrected with GAPDH, read-out: cell activities (IC50). On the procedure:
Example 43: Cell Activity Test
1) The A7R5 cells in the logarithmic growth phase were digested, 2E5 cells per well were inoculated in a 6-well plate and incubated overnight at 37° C. with 5% CO2, and the cell culture medium was replaced with a starvation medium containing 0.05% FBS after 24 hours. The cells were starved for 20 hours.
2) The starvation medium was removed, the cells were treated with the prepared compound concentration gradient for 60 minutes, VIP-5021 (10 uM) was set as the positive control, and the DMSO group was set as the negative control.
3) After the compound treatment, the compound solutions were aspirated, washed with PBS two times, 100 ul of cell lysate was added to each well, the cells were gently scraped with a cell scraper, and the cells were transferred to a centrifuge tube and lysed on ice for 60 minutes.
4) After the lysis, centrifugation was performed at 4° C. and 14000 rpm for 15 minutes, the lysate supernatant was collected, protein quantification was performed using the BCA method, the protein concentration was adjusted, the loading buffer was added according to proportion, and treatment was performed at 100° C. for 10 minutes to denature the protein.
5) An electrophoresis equipment was assembled, 20 ug of total protein was loaded per sample, the voltage was fixed at 125 V, and electrophoresis was performed for 90 minutes. After the electrophoresis was completed, the membrane transfer system was assembled with a fixed current of 300 mA and the membrane was transferred for 120 minutes. After the membrane transfer was completed, the PVDF membrane was removed and washed with PBS two times. A blocking solution was added to block at room temperature for 60 minutes. The blocking solution was removed, a solution containing the primary antibody (Phospho-Myosin Light Chain2 (Ser19)) (antibody dilution ratio 1:1000) was added, GAPDH was selected as internal control, and incubation was performed overnight at 4° C.
6) Washing was performed with PBST three times, HRP-antibody containing the corresponding species (secondary antibody dilution ratio 1:2000) was added, incubation was performed at room temperature for 60 minutes, and washing was performed with PBST three times. HRP chemiluminescence substrate was prepared, and dropwisely added on the PVDF membrane based on 0.1 mL per square centimeter to react for 30 seconds, and the chemiluminescence signal was collected with a gel imager (ChemiDoc XRS+(BIO-RAD)).
7) Each band was quantitatively analyzed using image J software, and the phosphorylated protein level of Phospho-Myosin Light Chain2 (Ser19) in each sample was corrected using GAPDH expression as internal reference.
1) Taking the MLC2 (Ser19) protein phosphorylation level of the highest concentration compound sample as 100% inhibition rate, and taking the MLC2 (Ser19) protein phosphorylation level of the negative control group (DMSO group) as 0% inhibition rate, the percentage inhibition rate corresponding to each concentration of the test compounds was calculated.
2) In the GraphPad Prism software, a nonlinear regression analysis was performed on the logarithm of the concentrations of the test compounds and the corresponding percentage inhibition rates to obtain the half-inhibitory concentrations (IC50) of the cell levels of the test compounds.
The cell activities (IC50) of the compounds detected by this method are as follows: […]

The target of another experiment is ROCK2 (Homo sapiens, UniProt O75116). The experiment is described as follows: ROCK2 kinase inhibitor activity test (HTRF). It counts as biochemical. To be noted: ROCK2 1 nM, substrate 500 nM, ATP 6 uM, 1.5 hours at room temperature, read-out: ROCK2 kinase inhibitor activities (IC50). Here is the method: ROCK2 Kinase Inhibitor Activity Test
Chain of ROCK2 (O75116 whole entry): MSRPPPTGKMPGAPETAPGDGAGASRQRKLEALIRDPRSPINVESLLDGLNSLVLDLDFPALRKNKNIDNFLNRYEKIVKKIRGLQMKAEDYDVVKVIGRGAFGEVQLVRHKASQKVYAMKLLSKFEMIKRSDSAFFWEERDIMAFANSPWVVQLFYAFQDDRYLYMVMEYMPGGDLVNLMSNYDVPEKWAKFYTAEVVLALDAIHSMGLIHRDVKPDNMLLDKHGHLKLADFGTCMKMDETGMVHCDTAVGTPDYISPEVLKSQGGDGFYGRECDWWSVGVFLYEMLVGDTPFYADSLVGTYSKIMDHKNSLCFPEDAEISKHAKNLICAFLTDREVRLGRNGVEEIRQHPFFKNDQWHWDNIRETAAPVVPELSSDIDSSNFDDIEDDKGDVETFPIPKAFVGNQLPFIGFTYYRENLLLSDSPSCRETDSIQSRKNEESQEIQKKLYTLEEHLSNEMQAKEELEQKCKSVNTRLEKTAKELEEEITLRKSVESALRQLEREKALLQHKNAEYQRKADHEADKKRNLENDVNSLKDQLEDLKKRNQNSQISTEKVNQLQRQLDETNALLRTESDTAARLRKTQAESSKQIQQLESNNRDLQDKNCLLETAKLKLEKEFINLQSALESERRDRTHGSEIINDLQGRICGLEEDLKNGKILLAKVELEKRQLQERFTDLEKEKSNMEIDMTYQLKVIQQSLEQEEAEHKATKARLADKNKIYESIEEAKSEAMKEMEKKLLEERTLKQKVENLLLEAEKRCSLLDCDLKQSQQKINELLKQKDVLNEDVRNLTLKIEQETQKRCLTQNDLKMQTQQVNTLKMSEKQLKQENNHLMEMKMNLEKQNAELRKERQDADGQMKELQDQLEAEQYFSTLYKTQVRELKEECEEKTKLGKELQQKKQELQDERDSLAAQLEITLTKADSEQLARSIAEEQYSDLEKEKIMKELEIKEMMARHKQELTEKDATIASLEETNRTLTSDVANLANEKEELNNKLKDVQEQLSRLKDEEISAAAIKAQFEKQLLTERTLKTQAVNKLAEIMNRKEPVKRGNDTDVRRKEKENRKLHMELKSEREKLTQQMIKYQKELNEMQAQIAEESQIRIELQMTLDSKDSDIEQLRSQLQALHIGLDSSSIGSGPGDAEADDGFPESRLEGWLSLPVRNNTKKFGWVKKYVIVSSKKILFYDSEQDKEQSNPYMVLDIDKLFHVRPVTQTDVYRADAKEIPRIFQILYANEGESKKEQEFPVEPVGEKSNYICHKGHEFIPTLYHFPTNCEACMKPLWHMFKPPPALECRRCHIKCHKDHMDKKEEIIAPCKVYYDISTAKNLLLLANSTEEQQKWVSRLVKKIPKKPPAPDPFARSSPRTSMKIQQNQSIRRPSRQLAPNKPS
1) 4× ROCK2 reaction solution, 4×ATP reaction solution, 4× substrate solution, and 4× compound solution were prepared according to experimental requirements.
2) 2.5 μL of 4× kinase solution and 2.5 μL of diluted 4× test compound solutions with different concentration gradients were added to a 384-well plate. 2 replicate wells were provided for each concentration, and an enzyme solution blank control group and a negative control group (DMSO group) were provided at the same time. Centrifugation was performed at 1000 rpm for 1 minute, and the enzyme and the compounds were mixed. 2.5 μL of 4× substrate solution was added to the 384-well plate, centrifugation was performed at 1000 rpm for 1 minute, 2.5 μL of 4× ATP solution was added to the 384-well plate, centrifugation was performed at 1000 rpm for 1 minute to start the enzyme reaction, and incubation was performed at room temperature for 1.5 hours.
The final concentration of each component of the ROCK2 reaction was: ROCK2: 1 nM, substrate: 500 nM, ATP: 6 uM, and the final concentration range of the test compounds was: 100 nM to 5 pM.
3) 4× Streptavidin-XL-665 detection solution was prepared according to experimental requirements.
4) After the enzyme reaction was completed, 5 ul of 4× Streptavidin-XL-665 detection solution was added to each well of the 384-well plate, and centrifugation was performed at 1000 rpm for 1 minute. 5 μL of 4×STK Antibody-cryptate detection antibody solution was added to each well of the 384-well plate, centrifugation was performed at 1000 rpm for 1 minute, and incubation was performed for 1 hour at room temperature.
5) After antibody incubation was completed, the signal value of each well was measured by the HTRF program on an Envision plate reader.
1) Taking the enzyme solution blank control group as 100% inhibition rate and the negative control group (DMSO group) as 0% inhibition rate, the percentage inhibition rate corresponding to each concentration of the test compound was calculated.
2) In the GraphPad Prism software, a nonlinear regression analysis was performed on the logarithm of the concentrations of the test compounds and the corresponding percentage inhibition rates to obtain the half-inhibitory concentrations (IC50) of the test compounds.
The ROCK2 kinase inhibitor activities (IC50) of the compounds detected by this method are as follows: […]
For orientation: Time-resolved FRET reads energy transfer from a long-lived donor to a nearby acceptor.

For the compound `NC[C@@H](C(=O)Nc1cc2ccncc2s1)c1ccc(CCO[N+](=O)[O-])cc1` [Example 11, (S)-4-(3-amino-1-oxo-1-(thieno[2,3-c]pyridin-2-ylamino)propan-2-yl)phenethyl nitrate], the figures for the IC50 (in experiment [1]; at ROCK2) were 21.4 nM and 6.01 nM, respectively. `NC[C@@H](C(=O)Nc1cc2ccncc2s1)c1ccc(COC(=O)CCCCO[N+](=O)[O-])cc1` [Example 9, (S)-4-(3-amino-1-oxo-1-(thieno[2,3-c]pyridin-2-ylamino)prop-2-yl)benzyl 5-(nitrooxy)valerate]: the values for the IC50 (in experiment [1]; on ROCK2) were 30.3 nM and 1.02 nM, respectively. On the same counts, the results for `NCC(C(=O)Nc1cc2ccncc2s1)c1ccc(OCC(CO[N+](=O)[O-])O[N+](=O)[O-])cc1` (centres unmarked) [Example 7, 3-(4-(3-amino-1-oxo-1-(thieno[2,3-c]pyridin-2-ylamino)prop-2-yl)phenoxy)propane-1,2-dinitrate] are 8.8 nM and 2.19 nM. Consider `NC[C@@H](C(=O)Nc1cc2ccncc2s1)c1ccc(COC(=O)OCCCCO[N+](=O)[O-])cc1` [Example 13, (S)-4-(3-amino-1-oxo-1-(thieno[2,3-c]pyridin-2-ylamino)prop-2-yl)benzyl(4-(nitrooxy)butyl)carbonate], for which the IC50 in experiment [1] is 39.5 nM; on ROCK2, 1.51 nM. `NC[C@@H](C(=O)Nc1cc2ccncc2s1)c1ccc(CO[N+](=O)[O-])cc1` [Example 1, (S)-4-(3-amino-1-oxo-1-(thieno[2,3-c]pyridin-2-ylamino)prop-2-yl)benzyl nitrate]: the IC50 in experiment [1] amounted to 53 nM; on ROCK2, 0.5 nM. Regarding `NCC(C(=O)Nc1cc2ccncc2s1)c1ccc(CCCO[N+](=O)[O-])cc1` (centres unmarked) [Example 8, 3-(4-(3-amino-1-oxo-1-thieno[2,3-c]pyridin-2-ylamino)prop-2-yl)phenyl)propyl nitrate], the IC50 stood at 35.8 nM in experiment [1] and 5.9 nM on ROCK2. With `NC[C@@H](C(=O)Nc1cc2ccncc2s1)c1ccc(COC(=O)C2CCC(O[N+](=O)[O-])CC2)cc1` (stereo partly drawn) [Example 15, (S)-4-(3-amino-1-oxy-1-(thieno[2,3-c]pyridin-2-ylamino)prop-2-yl)benzyl 4-(nitrooxy)cyclohexane-1-carboxylic acid], the IC50 on ROCK2 came out at 1.63 nM. The same measure, in the same setting: the result for `NC[C@@H](C(=O)Nc1cc2ccncc2s1)c1ccc(COC(=O)c2cccc(CCO[N+](=O)[O-])c2)cc1` [Example 28, (S)-4-(3-amino-1-oxy-1-(thieno[2,3-c]pyridin-2-ylamino)prop-2-yl)benzyl 3-(2-(nitrooxy)ethyl)benzoate] reads 1.32 nM; that for `CN(C)C[C@@H](C(=O)Nc1cc2ccncc2s1)c1ccc(COC(=O)C(C)(CO[N+](=O)[O-])CO[N+](=O)[O-])cc1` [Example 40, (S)-4-(3-(dimethylamino)-1-oxo-1-(thieno[2,3-c]pyridin-2-ylamino)propan-2-yl)benzyl 2-methyl-3-(nitrooxy)-2-((nitrooxy)methyl)propionate], 2.05 nM. For the compound `NCC(C(=O)Nc1cc2ccncc2s1)c1ccc(C(CO[N+](=O)[O-])O[N+](=O)[O-])cc1` (centres unmarked) [Example 5, 1-(4-(3-amino-1-oxo-1-(thieno[2,3-c]pyridin-2-ylamino)prop-2-yl)phenyl)ethane-1,2-dinitrate], the IC50 on ROCK2 was 19.2 nM. With `NC[C@@H](C(=O)Nc1cc2ccncc2s1)c1ccc(COC(=O)[C@H]2CC[C@H](O[N+](=O)[O-])CC2)cc1` [Example 20, 4-((S)-3-amino-1-oxy-1-(thieno[2,3-c]pyridin-2-ylamino)prop-2-yl)benzyl(1r,4S)-4-(nitrooxy)cyclohexane-1-carboxylate], the IC50 on ROCK2 turned out to be 1.43 nM.

As usually defined, the IC50 is the concentration needed to halve the response being measured.

(Values after patent US20220332726A1, “NITROXIDE DERIVATIVE OF ROCK KINASE INHIBITOR” (VIVAVISION (SHANGHAI) LTD, priority 2020, published 2022).)
